The text below walks through data of publication PMC5570656 (Journal of medicinal chemistry, 2017).

Counter-ions that a name gives are not always drawn.

The conditions of series [1]: mice, in words, earlier work; cited from earlier work.
The conditions of series [2]: rats, in words, earlier work; cited from earlier work.
Series [3] relates to 45 different CNS targets and receptors. Particulars: of 45 targets, cited from earlier work.
The next series deals with Caco-2. Particulars: in words, previously designed inhibitors; cited from earlier work.
For series [4] the following is noted: in words.
The target in another series is murine macrophage iNOS (Mus musculus, UniProt P29477). Particulars: ratio of respective Ki values.
murine macrophage iNOS, sequence (P29477 whole entry): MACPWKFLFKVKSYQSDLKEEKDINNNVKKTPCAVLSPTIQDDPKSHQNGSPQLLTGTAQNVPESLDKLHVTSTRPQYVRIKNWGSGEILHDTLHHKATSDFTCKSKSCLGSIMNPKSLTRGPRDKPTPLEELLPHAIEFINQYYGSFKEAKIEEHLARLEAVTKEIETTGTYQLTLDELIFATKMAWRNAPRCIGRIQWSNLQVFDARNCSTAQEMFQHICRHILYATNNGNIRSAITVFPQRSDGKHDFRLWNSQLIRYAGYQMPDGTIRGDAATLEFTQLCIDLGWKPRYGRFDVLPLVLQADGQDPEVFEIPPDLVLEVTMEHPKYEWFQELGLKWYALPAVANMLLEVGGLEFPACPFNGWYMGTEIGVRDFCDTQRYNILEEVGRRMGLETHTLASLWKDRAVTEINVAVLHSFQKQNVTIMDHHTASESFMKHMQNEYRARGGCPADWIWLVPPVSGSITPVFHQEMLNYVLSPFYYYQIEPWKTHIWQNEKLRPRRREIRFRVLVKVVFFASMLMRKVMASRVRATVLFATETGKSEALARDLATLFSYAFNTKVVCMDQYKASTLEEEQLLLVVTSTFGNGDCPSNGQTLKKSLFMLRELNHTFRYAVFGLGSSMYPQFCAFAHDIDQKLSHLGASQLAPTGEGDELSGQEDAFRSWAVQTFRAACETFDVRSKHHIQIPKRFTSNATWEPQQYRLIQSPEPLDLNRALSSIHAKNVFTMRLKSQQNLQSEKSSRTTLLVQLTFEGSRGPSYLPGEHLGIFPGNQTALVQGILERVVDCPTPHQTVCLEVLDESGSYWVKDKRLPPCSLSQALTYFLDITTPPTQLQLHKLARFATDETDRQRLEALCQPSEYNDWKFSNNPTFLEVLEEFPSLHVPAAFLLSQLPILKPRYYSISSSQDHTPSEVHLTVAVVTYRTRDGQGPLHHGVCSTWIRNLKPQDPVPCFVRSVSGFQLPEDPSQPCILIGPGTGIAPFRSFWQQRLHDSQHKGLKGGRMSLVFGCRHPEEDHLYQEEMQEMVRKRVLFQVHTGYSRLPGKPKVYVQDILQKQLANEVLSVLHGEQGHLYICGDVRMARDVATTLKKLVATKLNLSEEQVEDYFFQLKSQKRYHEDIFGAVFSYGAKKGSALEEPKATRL
For the next series, the target named is bovine eNOS (Bos taurus, UniProt P29473). Particulars: ratio of respective Ki values.
bovine eNOS, sequence (P29473 whole entry): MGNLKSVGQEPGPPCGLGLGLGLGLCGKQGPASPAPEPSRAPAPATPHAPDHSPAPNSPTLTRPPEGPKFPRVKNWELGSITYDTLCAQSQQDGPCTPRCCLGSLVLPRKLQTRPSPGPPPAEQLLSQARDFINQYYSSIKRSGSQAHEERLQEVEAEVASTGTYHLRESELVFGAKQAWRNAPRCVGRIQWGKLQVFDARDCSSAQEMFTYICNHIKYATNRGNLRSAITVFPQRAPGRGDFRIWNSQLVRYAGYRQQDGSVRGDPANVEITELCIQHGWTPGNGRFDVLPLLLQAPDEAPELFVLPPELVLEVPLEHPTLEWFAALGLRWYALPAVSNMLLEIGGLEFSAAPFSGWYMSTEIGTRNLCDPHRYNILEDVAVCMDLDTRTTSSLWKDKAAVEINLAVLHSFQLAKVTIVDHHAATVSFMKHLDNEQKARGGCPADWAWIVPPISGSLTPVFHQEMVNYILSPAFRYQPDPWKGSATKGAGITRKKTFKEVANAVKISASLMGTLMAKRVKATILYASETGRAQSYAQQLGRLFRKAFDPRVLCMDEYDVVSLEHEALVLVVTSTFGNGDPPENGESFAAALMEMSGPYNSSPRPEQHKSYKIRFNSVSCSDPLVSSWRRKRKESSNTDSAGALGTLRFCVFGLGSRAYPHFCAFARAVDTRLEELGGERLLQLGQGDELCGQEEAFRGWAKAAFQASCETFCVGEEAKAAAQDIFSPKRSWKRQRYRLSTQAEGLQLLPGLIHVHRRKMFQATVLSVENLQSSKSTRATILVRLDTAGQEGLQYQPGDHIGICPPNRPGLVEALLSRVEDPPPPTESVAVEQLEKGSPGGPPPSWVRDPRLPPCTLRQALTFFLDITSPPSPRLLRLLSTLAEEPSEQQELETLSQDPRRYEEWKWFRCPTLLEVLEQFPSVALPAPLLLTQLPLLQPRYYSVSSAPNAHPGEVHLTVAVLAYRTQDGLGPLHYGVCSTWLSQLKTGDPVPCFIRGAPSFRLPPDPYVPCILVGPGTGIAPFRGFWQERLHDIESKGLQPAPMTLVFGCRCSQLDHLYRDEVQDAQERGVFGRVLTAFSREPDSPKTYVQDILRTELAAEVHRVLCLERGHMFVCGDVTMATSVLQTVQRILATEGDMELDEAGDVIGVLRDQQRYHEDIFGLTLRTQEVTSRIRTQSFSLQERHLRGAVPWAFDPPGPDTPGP
For another series, the target named is nNOS (Homo sapiens, UniProt P29475). The experiment in a line: Stability of stored compound solutions. It is filed as physicochemical. Particulars: solutions stored for longer periods of time (ca. one week).
nNOS, sequence (P29475 whole entry): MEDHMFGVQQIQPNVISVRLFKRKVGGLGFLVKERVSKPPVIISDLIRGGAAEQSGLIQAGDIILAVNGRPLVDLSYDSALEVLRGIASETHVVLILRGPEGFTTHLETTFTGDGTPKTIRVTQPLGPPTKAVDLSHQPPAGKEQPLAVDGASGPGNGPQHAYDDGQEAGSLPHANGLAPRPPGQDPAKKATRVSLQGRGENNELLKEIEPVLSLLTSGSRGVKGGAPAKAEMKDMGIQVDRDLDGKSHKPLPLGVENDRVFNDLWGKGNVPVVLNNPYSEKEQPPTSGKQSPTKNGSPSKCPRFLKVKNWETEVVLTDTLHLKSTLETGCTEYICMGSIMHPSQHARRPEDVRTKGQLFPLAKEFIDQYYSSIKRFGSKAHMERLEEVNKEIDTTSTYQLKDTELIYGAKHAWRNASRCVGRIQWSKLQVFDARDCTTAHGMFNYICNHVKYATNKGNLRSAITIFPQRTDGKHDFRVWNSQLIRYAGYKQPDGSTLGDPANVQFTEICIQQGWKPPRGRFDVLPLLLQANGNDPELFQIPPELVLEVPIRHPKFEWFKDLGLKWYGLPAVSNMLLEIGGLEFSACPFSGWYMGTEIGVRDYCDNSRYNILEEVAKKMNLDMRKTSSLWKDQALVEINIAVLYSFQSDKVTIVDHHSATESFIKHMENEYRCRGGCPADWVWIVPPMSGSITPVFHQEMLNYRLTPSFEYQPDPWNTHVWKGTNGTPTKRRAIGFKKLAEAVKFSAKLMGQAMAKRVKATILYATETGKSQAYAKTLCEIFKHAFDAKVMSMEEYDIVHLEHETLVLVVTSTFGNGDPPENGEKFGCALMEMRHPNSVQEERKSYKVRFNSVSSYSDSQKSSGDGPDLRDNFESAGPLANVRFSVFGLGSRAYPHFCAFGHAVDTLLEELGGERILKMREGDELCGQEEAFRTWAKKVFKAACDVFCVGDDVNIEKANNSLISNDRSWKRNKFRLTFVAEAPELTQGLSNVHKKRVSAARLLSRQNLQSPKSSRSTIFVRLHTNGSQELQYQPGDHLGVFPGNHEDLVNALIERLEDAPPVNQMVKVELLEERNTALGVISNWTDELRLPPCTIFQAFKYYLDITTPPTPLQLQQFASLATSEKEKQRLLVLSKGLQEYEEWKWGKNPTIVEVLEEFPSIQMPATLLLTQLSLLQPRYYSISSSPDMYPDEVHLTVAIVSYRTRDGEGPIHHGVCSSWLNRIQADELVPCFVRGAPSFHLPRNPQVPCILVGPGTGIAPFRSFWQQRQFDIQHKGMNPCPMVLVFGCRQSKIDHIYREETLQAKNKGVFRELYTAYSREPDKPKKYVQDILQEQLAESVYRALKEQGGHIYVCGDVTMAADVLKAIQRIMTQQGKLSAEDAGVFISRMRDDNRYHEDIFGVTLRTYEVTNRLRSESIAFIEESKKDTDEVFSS

Turning to `Nc1ccc2ccc(CCNCCc3cccc(F)c3)cc2n1` [Compound 4], the oral bioavailability entry in series [1] is “good”.

With `Nc1ccc2ccc(CCNCCc3cccc(Cl)c3)cc2n1` [Compound 5], the brain penetration entry in series [2] is “brain penetration”.

Take `CNCc1cc(OCc2ccc3ccc(N)nc3c2)ccc1Cl` [Compound 6]: in series [3] (100-300 nM), the “PDSP number of targets classified Moderate” value is reported as 3. Also, the “PDSP number of targets classified Insignificant” value in series [3] (<50% bound at 10 μM) is listed as 22. Also, the “PDSP number of targets classified Weak” value in series [3] (>300 nM) is reported as 17. Moreover, in series [3] (Ki <100 nM), the “PDSP number of targets classified Concerning” value is 3. The Caco-2 permeability entry in the series with Caco-2 is “poor”.

With `N#Cc1cccc(NCc2ccc3ccc(N)nc3c2)c1` [Compound 7, 3-(((2-Aminoquinolin-7-yl)methyl)amino)benzonitrile Dihydrochloride], the solubility result in series [4] is recorded as “poor”.

As to `CN(C)c1cccc(CNCc2ccc3ccc(N)nc3c2)c1` [Compound 12, 7-(((3-(Dimethylamino)benzyl)amino)methyl)quinolin-2-amine Trihydrochloride], at murine macrophage iNOS, the Selectivity rn/mi turned out to be 71. Also, the Selectivity rn/be on bovine eNOS is recorded as 16.

Turning to `CN(C)c1cccc(CCNCc2ccc3ccc(N)nc3c2)c1` [Compound 14, 3-(Dimethylamino)phenethyl)amino)methyl)quinolin-2-amine Trihydrochloride], the stability of solutions entry on nNOS is on record as “lost their nNOS inhibitory activity”.
